Each structure is given as a SMILES string.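 Growth conditions: 96-well plates. Treatment: test compound, 48 hours, 5 concentrations. Analysis: linear interpolation between bracketing concentrations; unreached endpoints set to highest concentration. Here, GI50 denotes the concentration required for 50% inhibition of growth. The concentration for full growth arrest is given as TGI.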

Holding throughout (experiment): growth of human tumour cells (NCI), 48 h
In test [1] the test system is HCC-2998 colon.
For test [2], the system named is NCI-H23 lung.
The test system of test [3] is OVCAR-5 ovarian.
Test [4] has as its system RPMI-8226 leukemia.
In test [5] the test system is SF-539 CNS.
Test [6] concerns SK-MEL-2 melanoma.
The test system of test [7] is SK-MEL-5 melanoma.
Test [8] relates to SNB-75 CNS.
Test [9] relates to UO-31 renal.

For `O=C1NC(=O)C(=C/C=C/c2ccccc2)C(=O)N1`, the GI50 was 2.2 µM in [1]; 2.16 µM in test [2]; 5.33 µM in [3]; 3.59 µM in test [4]; 2.33 µM in [5]; 3.65 µM in [6]. Further, the GI50 in [7] is 2.24 µM; in test [8] it was 6 µM. For the same compound, the TGI in test [1] came out at 4.1 µM; in [2], 5.29 µM; in [3], 23 µM; in test [4], 10.2 µM; in test [5], 6.3 µM; in [6], 16.2 µM. The TGI in test [7] was 4.94 µM; in test [8], 19.4 µM.

Take `CC1C[C@H](C)CC(C(O)CC2CC(=O)N(Cc3ccccc3)C(=O)C2)C1O` (stereo partly drawn): the TGI in [1], in [2], in test [3], in test [4], in test [5] and in test [8] was more than 100 µM throughout. The TGI in [9] is more than 100 µM.

As to `O=C(c1ccccc1)N1C2CCC1C(C(F)(F)F)=C2C(F)(F)F`, the TGI in [1], in [2], in test [3], in test [4], in [5] and in test [7] was more than 100 µM throughout. The TGI in test [8] and in test [9] was more than 100 µM each time.

Turning to `C=C(C)[C@@H]1CC[C@]2(C(=O)O)CC[C@]3(C)[C@H](CC[C@@H]4[C@@]5(C)C[C@@H](CC#Cc6ccc(C(F)(F)F)cc6)[C@H](O)C(C)(C)[C@@H]5CC[C@]43C)[C@@H]12`, the GI50 was 8.48 µM in [1]; 4.01 µM in [4]; 2.08 µM in test [6]; 8.97 µM in test [7]; 1.73 µM in test [8]; 6.52 µM in [9]. Moreover, the TGI in [1] is more than 100 µM; in test [4] it was more than 100 µM; in test [6] it was 4.58 µM; in test [7], more than 100 µM; in [8], 5.14 µM; in [9] it was more than 100 µM.

In the case of `COc1c(C(=O)c2ccc([N+](=O)[O-])cc2)cc(C(C)(C)C)cc1C(C)(C)C`, the TGI in test [1] is 66.9 µM; in [2] it was more than 100 µM; in test [3], more than 100 µM; in [4], 31.7 µM; in test [5], more than 100 µM; in test [6], 30.1 µM. The TGI in test [7] was 32.1 µM; in [8], more than 100 µM; in [9], more than 100 µM.

For the compound `CC(=O)OC1CCCn2c1nc1c2C(=O)C(C)=C(N2CC2)C1=O` (stereo not drawn), the TGI in [1] was 0.722 µM; in [2] it was 0.373 µM; in test [3], 1.32 µM; in test [4], 14.2 µM; in test [5], 1.43 µM; in test [6], 0.693 µM. Besides, the TGI in [7] turned out to be 0.351 µM; in test [8], 0.808 µM; in [9] it was 5.07 µM.

As to `CC1SC2=NC3=C(c4ccccc4C3=O)C(c3ccc(Cl)cc3)N2C1=O` (stereo not drawn), the TGI in [1], in [2], in test [3], in [4], in test [6] and in [7] was more than 100 µM throughout. Further, the TGI in test [8] and in test [9] was more than 100 µM each time.

On to `CNCc1cc(OC)ccc1-c1ccc(OC)c(OC)c1OC`, for which the TGI in [1], in test [2], in test [3], in test [4], in test [5] and in test [6] was more than 100 µM in each case. Also, the TGI in test [7] was more than 100 µM; in test [8] it was more than 96.7 µM; in test [9], more than 100 µM.

For the compound `CC1CC(=O)Nc2ccccc2N1C(=O)CN1CCC(CCCCN(C)C)CC1` (stereo not drawn), the TGI in test [1], in [2], in test [3], in test [4], in test [5] and in test [6] was more than 100 µM throughout. In addition, the TGI in test [7], in test [8] and in test [9] was more than 100 µM each time.

Regarding `CC(=O)c1ccc(OCC(O)CO)cc1` (stereo not drawn), the TGI in test [1], in test [2], in test [3], in test [4], in test [5] and in test [7] was more than 100 µM each time. Also, the TGI in test [8] and in [9] was more than 100 µM each time.

Take `CC[P+](C)(C)c1ccccc1`: the TGI in test [1], in test [2], in test [3], in [4], in test [5] and in [6] was more than 100 µM in each case. The TGI in test [7], in [8] and in [9] was more than 100 µM throughout.

Turning to `CCOC(=O)CSC(=O)NCCCl`, the TGI in [1], in test [2], in test [3], in [4], in [5] and in test [6] was more than 100 µM each time. The TGI in test [8] and in test [9] was more than 100 µM in each case. The GI50 in test [4] was more than 100 µM.

In the case of `CC1=NOC(=O)/C1=C/c1cccc2ccccc12`, the TGI in test [1], in test [2], in test [3], in [4], in test [5] and in test [6] was more than 100 µM throughout. Besides, the TGI in test [7], in test [8] and in test [9] was more than 100 µM in each case.

For the compound `O=C1c2ccccc2C(=O)N1CCN(CCN1C(=O)c2ccccc2C1=O)Cn1cccn1`, the TGI was more than 100 µM in test [1]; 83.4 µM in test [4]; more than 100 µM in test [6]; more than 100 µM in test [7]; more than 100 µM in [8]; more than 100 µM in [9].

These data come from PubChem BioAssay (NCI).
